Test results as given in patent US10869924B2, “PD-L1 antagonist combination treatments” (MERCK PATENT GMBH, priority 2015, dated 2020).

Experiments:
clear cell aRCC = conditions: cited from earlier work; for median PFS (mPFS): previously untreated patients with clear cell aRCC, axitinib 5 mg BID, single agent
human PBMC = test: Cytokine release, standard human PBMC in vitro test; assay type: cell-based
Text: The combination of avelumab plus anti-4-1BB antibody PF-05082566 and anti-OX40 antibody PF-04518600 has been evaluated for cytokine release using the standard human PBMC in vitro test. The cytokine release assay was completed for PF-05082566 alone and in combination with avelumab and PF-04518600.

Compound | stratified hazard ratio (PFS) (clear cell aRCC; axitinib vs. sorafenib, 95% CI 0.56, 1.05) | median PFS (mPFS) (clear cell aRCC) [months] | cytokine release (human PBMC)
CNC(=O)c1ccccc1Sc1ccc2c(/C=C/c3ccccn3)n[nH]c2c1 [axitinib, N-methyl-2-[3-((E)-2-pyridin-2-yl-vinyl)-1H-indazol-6-ylsulfanyl]-benzamide] | 0.77 | 10.1 | 
CNC(=O)c1cc(Oc2ccc(NC(=O)Nc3ccc(Cl)c(C(F)(F)F)c3)cc2)ccn1 [sorafenib] |  | 6.5 | 
PF-05082566: novel fully human IgG2 monoclonal antibody agonist of 4-1BB |  |  | did not show a significant increase in cytokine release
